Reference: publication PMC10572522, “A Designed Analog of an Antimicrobial Peptide, Crabrolin, Exhibits Enhanced Anti-Proliferative and In Vivo Antimicrobial Activity” (International Journal of Molecular Sciences, 2023)
Residues, ends and D or L forms follow the SMILES beside them.

Key:
[1] = tested on: E. faecium (NTCC 12697); experiment: Antimicrobial susceptibility assay (MIC/MBC); type: cell-based, Enterococcus faecium; settings: for MIC: MHB, 37 °C, 20 h
Protocol: (§1) Six bacteria were tested in this experiment to detect the antimicrobial effects of crabrolin and its derivatives, including S. aureus (NCTC 10788), MRSA (NCTC 12493), E. coli (ATCC 8739), K. pneumoniae (ATCC 43816), E. faecium (NTCC-12697), and P. aeruginosa (ATCC 9027). The tested bacteria were cultured in Mueller Hinton broth medium (MHB) with norfloxacin (20 mg/L) as a positive control. All bacteria were incubated at 37 °C overnight and diluted to 5 × 10^5 CFU/mL before treating with the peptides. Stock solutions of 51,200 µM peptides were prepared in phosphate-buffered saline (PBS) and further diluted by a factor of two to 100 µM. Next, 1 µL of each peptide solution was mixed with 99 µL of bacterial subculture in a 96-well plate, and the plate was incubated at 37 °C for 20 h. After culturing, the absorbance of each well in the 96-well plate was analyzed at 550 nm using a Synergy HT plate reader (BioliseBioTek, Winooski, VT, USA). […] Starting with the MIC value, 10 µL of the solution from each well was dripped onto Mueller Hinton agar (MHA) plates. The plates were cultured at 37 °C for 20 h. After culturing, the lowest concentration with no colony growth was regarded as the MBC.

[2] = tested on: E. faecium (NTCC12697) biofilm; type: cell-based, Enterococcus faecium; settings: for MBIC: biofilm inhibitory rate more than 90%; for MBEC: eradication rate greater than 99.9%
Protocol: (§2) To measure the antibiofilm activity of crabrolin and its derivatives, four drug-resistant biofilm-forming strains, MRSA (NCTC 12493), K. pneumoniae (ATCC 43816), E. faecium (NTCC-12697), and P. aeruginosa (ATCC 9027), were used in this assay. Tryptic soy broth (TSB) (for the Gram-positive bacteria) and Luria–Bertani broth (LB) (for the Gram-negative bacteria) were used to culture the bacteria.
(§3) The mass of the biofilm in this assay was detected by the crystal violet staining method. First, 100 μL of 5 × 10^5 CFU/mL bacteria was incubated with 1 μL of different peptide solutions (ranging from 51200 μM to 100 μM) for 24 h at 37 °C with 200 rpm shaking. After the biofilm formation, 100 μL of PBS was used to rinse the biofilm twice. Next, 100 µL of methanol was added to fix the biofilm, and the biofilm was then dried. Thereafter, 100 μL of 0.1% crystal violet was added and left to stain for 15 min, and then the excess crystal violet was further rinsed by PBS. After the plate had air-dried, 30% glacial acetic acid was added to each well of the plate, and the plate was shaken for 15 min before the optical density (OD) value was measured at 595 nm using a Synergy HT plate reader. The MBIC value refers to the minimum concentration at which the biofilm inhibitory rate was more than 90%.
(§4) Different from measuring the MBIC value, to determine the MBEC value, 100 μL of the bacteria was first added to 96-well plates. After the biofilm was formed, the biofilm was rinsed with PBS twice to remove the planktonic cells, and then different concentrations of the drugs were added to the biofilm (the same as the MBIC assay). The mixture was incubated at 37 °C with shaking at 200 rpm. After 24 h of incubation, the mass of the biofilm was measured in the same way as the MBIC value, and the minimum concentration at which the eradication rate was greater than 99.9% was considered to be the MBEC value.

[3] = tested on: MRSA (NCTC 12493) biofilm; type: cell-based, methicillin-resistant Staphylococcus aureus; settings: for MBIC: biofilm inhibitory rate more than 90%; for MBEC: eradication rate greater than 99.9%
Protocol: as §2, §3, §4

[4] = tested on: E. coli (ATCC 8739); experiment: Antimicrobial susceptibility assay (MIC/MBC); type: cell-based, Escherichia coli; settings: for MIC: MHB, 37 °C, 20 h
Protocol: as §1

[5] = tested on: horse erythrocytes; experiment: Hemolysis assay; type: cell-based; settings: erythrocytes, 37 °C, 2 h
Protocol: (§5) According to the procedures described in detail in a previous study, the debris and impurities of the erythrocytes were washed with PBS in advance to yield 2% of the erythrocyte suspension, and the drug concentration was diluted from 1024 µM to 2 µM with PBS [53]. The same amounts of the drug and the erythrocyte suspension were mixed and cultured at 37 °C for 2 h; 0.1% Triton X-100 (Sigma-Aldrich, St. Louis, MO, USA) was prepared as a positive control, and PBS was prepared as a negative control. After the incubation, the supernatant was transferred to a 96-well plate and then detected using a Synergy HT plate reader at 570 nm.

[6] = Hemolysis assay; type: cell-based, horse; settings: horse, erythrocytes (2% suspension); at the peptide's maximum MIC; relative to Triton X-100; read-out: Hemolysis under the Maximum MIC
Protocol: as §5

[7] = tested on: K. pneumoniae (ATCC 43816); experiment: Antimicrobial susceptibility assay (MIC/MBC); type: cell-based, Klebsiella pneumoniae; settings: for MIC: MHB, 37 °C, 20 h
Protocol: as §1

[8] = tested on: S. aureus (NCTC 10788); experiment: Antimicrobial susceptibility assay (MIC/MBC); type: cell-based, Staphylococcus aureus; settings: for MIC: MHB, 37 °C, 20 h
Protocol: as §1

[9] = tested on: P. aeruginosa (ATCC 9027) biofilm; type: cell-based, Pseudomonas aeruginosa; settings: for MBIC: biofilm inhibitory rate more than 90%; for MBEC: eradication rate greater than 99.9%
Protocol: as §2, §3, §4

[10] = tested on: human prostate carcinoma cell line PC-3; experiment: Anti-proliferative assay (MTT); type: cell-based; settings: PC3, MTT, 24 h
Protocol: (§6) The human non-small-cell lung cancer line, H838, the human prostate carcinoma cell line, PC-3, the human glioblastoma astrocytoma, U251MG, the human breast cancer cell line, MCF-7, the human colorectal carcinoma cell line, HCT116, and the human keratinocyte cell line, HaCaT, were used to detect the anti-proliferative effects of the crabrolin and its derivatives in vitro. A total of 8000 cells were seeded in each well of a 96-well plate. After the cells had adhered to the wall, the cells were starved for 4 h. After the starvation, the cells were incubated with different concentrations of the drugs, ranging from 100 µM to 1 nM, for 24 h, with 0.1% Triton X-100 used as a positive control. Next, 10 µL of MTT (3-(4,5-dimethylthiazol-2-yl)-2,5-diphenyltetrazolium bromide) solution (5 mg/mL) was added to each well of the 96-well plate. After 2 h of incubation, 100 μL of DMSO-superseded medium was added to each well to dissolve the formazan crystals. Finally, the absorbance was detected using a Synergy HT plate reader at 570 nm.

[11] = tested on: human non-small-cell lung cancer line H838; experiment: Anti-proliferative assay (MTT); type: cell-based; settings: 24 h
Protocol: as §6

[12] = tested on: human glioblastoma astrocytoma U251MG; experiment: Anti-proliferative assay (MTT); type: cell-based; settings: 24 h
Protocol: as §6

[13] = tested on: human breast cancer cell line MCF-7; experiment: Anti-proliferative assay (MTT); type: cell-based; settings: MCF-7, MTT, 24 h
Protocol: as §6

[14] = tested on: human keratinocyte cell line HaCaT; experiment: Anti-proliferative assay (MTT); type: cell-based; settings: HaCaT (normal keratinocytes), 24 h
Protocol: as §6

[15] = tested on: human colorectal carcinoma cell line HCT-116; experiment: Anti-proliferative assay (MTT); type: cell-based; settings: HCT-116, MTT, 24 h
Protocol: as §6

[16] = tested on: MRSA (NCTC 12493); experiment: Antimicrobial susceptibility assay (MIC/MBC); type: cell-based, methicillin-resistant Staphylococcus aureus; settings: for MIC: MHB, 37 °C, 20 h
Protocol: as §1

[17] = tested on: P. aeruginosa (ATCC 9027); experiment: Antimicrobial susceptibility assay (MIC/MBC); type: cell-based, Pseudomonas aeruginosa; settings: for MIC: MHB, 37 °C, 20 h
Protocol: as §1

[18] = tested on: K. pneumoniae (ATCC 43816) biofilm; type: cell-based, Klebsiella pneumoniae; settings: for MBIC: biofilm inhibitory rate more than 90%; for MBEC: eradication rate greater than 99.9%
Protocol: as §2, §3, §4

| Structure (SMILES) | MBC [1] [µM] | MIC [1] [µM] | MBIC [2] [µM] | MBEC [2] [µM] | MBIC [3] [µM] | MBEC [3] [µM] | MBC [4] [µM] | MIC [4] [µM] | HC10 (10% hemolytic concentration) [5] [µM] | HC50 (50% hemolytic concentration) [5] [µM] | hemolysis at 2 h [6] [%] | MBC [7] [µM] | MIC [7] [µM] | MBC [8] [µM] | MIC [8] [µM] | MBIC [9] | MBEC [9] | IC50 [10] [µM] | IC50 [11] [µM] | IC50 [12] [µM] | other results |
| --- | --- | --- | --- | --- | --- | --- | --- | --- | --- | --- | --- | --- | --- | --- | --- | --- | --- | --- | --- | --- | --- |
| CC[C@H](C)[C@H](NC(=O)[C@H](CCCCN)NC(=O)[C@@H]1CCCN1C(=O)[C@H](CC(C)C)NC(=O)[C@@H](N)Cc1ccccc1)C(=O)N[C@@H](CC(C)C)C(=O)N[C@@H](CCCNC(=N)N)C(=O)N[C@@H](CCCCN)C(=O)N[C@H](C(=O)N[C@H](C(=O)N[C@H](C(=O)N[C@@H](C)C(=O)N[C@@H](CC(C)C)C(N)=O)[C@@H](C)O)C(C)C)[C@@H](C)CC [Crabrolin-4K, FLPKILRKIVTAL-NH2] (H-FLPKILRKIVTAL-NH2) | 64 | 32 | 16 | > 512 | 16 | 128 | 8 | 4 | 68.628 | 217.816 | 10.4 | 32 | 16 | 4 | 2 | 512/512 µM | 512/512 µM | 20.6 | 22.6 | 23.5 | IC50 [13]: 23.2 µM; IC50 [14]: 32.6 µM; IC50 [15]: 42.9 µM; MBC [16]: 16 µM; MIC [16]: 8 µM; MBC [17]: 32 µM; MIC [17]: 16 µM; MBIC [18]: 16 µM; MBEC [18]: 256 µM |
| CC[C@H](C)[C@H](NC(=O)[C@H](CCCNC(=N)N)NC(=O)[C@@H]1CCCN1C(=O)[C@H](CC(C)C)NC(=O)[C@@H](N)Cc1ccccc1)C(=O)N[C@@H](CC(C)C)C(=O)N[C@@H](CCCNC(=N)N)C(=O)N[C@@H](CCCCN)C(=O)N[C@H](C(=O)N[C@H](C(=O)N[C@H](C(=O)N[C@@H](C)C(=O)N[C@@H](CC(C)C)C(N)=O)[C@@H](C)O)C(C)C)[C@@H](C)CC [Crabrolin-4R, FLPRILRKIVTAL-NH2] (H-FLPRILRKIVTAL-NH2) | 32 | 16 | 16 | > 512 | 8 | 64 | 4 | 4 | 62.117 | 216.266 | 6.18 | 8 | 8 | 4 | 2 | 128 µM | 256 µM | 18 | 11.4 | 25.1 | IC50 [13]: 20.3 µM; IC50 [14]: 35.8 µM; IC50 [15]: 47 µM; MBC [16]: 8 µM; MIC [16]: 4 µM; MBC [17]: 16 µM; MIC [17]: 16 µM; MBIC [18]: 16 µM; MBEC [18]: 128 µM |
